Assay results: ChEMBL document CHEMBL2202954, “The effect of PLC-γ2 inhibitors on the growth of human tumour cells” (2012)

Columns and labels:
Assay type in all cases: functional
UO-31 = experiment: Cytotoxicity against human UO31 cells assessed as cellular growth at 10 uM by SRB assay
OVCAR-8 = experiment: Cytotoxicity against human OVCAR8 cells assessed as cellular growth at 10 uM by SRB assay
Malme-3M = experiment: Cytotoxicity against human MALME-3M cells assessed as cellular growth at 10 uM by SRB assay
SF-295 = experiment: Cytotoxicity against human SF295 cells assessed as cellular growth at 10 uM by SRB assay
SN12C = experiment: Cytotoxicity against human SN12C cells assessed as cellular growth at 10 uM by SRB assay
DU-145 = experiment: Cytotoxicity against human DU145 cells assessed as cellular growth at 10 uM by SRB assay
EKVX = experiment: Cytotoxicity against human EKVX cells assessed as cellular growth at 10 uM by SRB assay
SK-MEL-28 = experiment: Cytotoxicity against human SK-MEL-28 cells assessed as cellular growth at 10 uM by SRB assay
MDA-MB-231 = experiment: Cytotoxicity against human MDA-MB-231 cells assessed as cellular growth at 10 uM by SRB assay
IGROV-1 = experiment: Cytotoxicity against human IGROV1 cells assessed as cellular growth at 10 uM by SRB assay
HT-29 = experiment: Cytotoxicity against human HT-29 cells assessed as cellular growth at 10 uM by SRB assay
MOLT-4 = experiment: Cytotoxicity against human MOLT4 cells assessed as cellular growth at 10 uM by SRB assay
BT-549 = experiment: Cytotoxicity against human BT549 cells assessed as cellular growth at 10 uM by SRB assay
HOP-92 = experiment: Cytotoxicity against human HOP92 cells assessed as cellular growth at 10 uM by SRB assay
SK-MEL-2 = experiment: Cytotoxicity against human SK-MEL-2 cells assessed as cellular growth at 10 uM by SRB assay
A498 = experiment: Cytotoxicity against human A498 cells assessed as cellular growth at 10 uM by SRB assay
HL-60(TB) = experiment: Cytotoxicity against human HL-60(TB) cells assessed as cellular growth at 10 uM by SRB assay
SR = experiment: Cytotoxicity against human SR cells assessed as cellular growth at 10 uM by SRB assay
OVCAR-5 = experiment: Cytotoxicity against human OVCAR5 cells assessed as cellular growth at 10 uM by SRB assay
OVCAR-4 = experiment: Cytotoxicity against human OVCAR4 cells assessed as cellular growth at 10 uM by SRB assay

Row | Structure (SMILES) | Activity (UO-31) [%] | Activity (OVCAR-8) [%] | Activity (Malme-3M) [%] | Activity (SF-295) [%] | Activity (SN12C) [%] | Activity (DU-145) [%] | Activity (EKVX) [%] | Activity (SK-MEL-28) [%] | Activity (MDA-MB-231) [%] | Activity (IGROV-1) [%] | Activity (HT-29) [%] | Activity (MOLT-4) [%] | Activity (BT-549) [%] | Activity (HOP-92) [%] | Activity (SK-MEL-2) [%] | Activity (A498) [%] | Activity (HL-60(TB)) [%] | Activity (SR) [%] | Activity (OVCAR-5) [%] | Activity (OVCAR-4) [%]
1 | Oc1ccccc1-c1nc(-c2cccs2)no1 | 71.94 | 102.43 | 105.64 | 109.56 | 90.61 | 114.11 | 89.29 | 115.6 | 71.74 | 86.9 | 111.27 | 99.05 | 92.36 | 50.86 | 107.16 | 105.68 |  |  |  | 
2 | c1ccc(-c2nc(-c3cccs3)no2)cc1 | 88.86 | 105.37 | 131.39 | 128.58 | 91.08 | 103.67 | 102.25 | 117.87 | 77.5 | 83.5 | 108.03 | 92.81 | 105.93 | 75.75 | 103.18 | 96.9 | 103.76 | 97.61 |  | 
3 | Cc1ccccc1NC(=O)c1sc2nc3c(cc2c1N)C(=O)CCC3 | 77.51 | 78.59 | 66.45 | 57.18 | 64.53 | 18.31 | 87.53 | 52.79 | 61.61 | 77.05 | 21.08 | 67.51 | 55.62 |  | 58.56 | 31.28 | 36.05 | 34.35 | 80.78 | 67.57
4 | O=S(=O)(Oc1ccc(-c2cnc3ccccc3n2)cc1)c1ccccc1 | 94.43 | 100.22 | 92.27 | 94.02 | 95.17 | 107.72 | 93.17 | 110.13 | 105.17 | 130.45 | 78.71 | 75.6 | 96.82 |  | 109.62 | 60.82 | 94.23 | 85.09 | 101.99 | 96.73
5 | CC1(C)CC(=O)c2cc3c(N)c(C(=O)Nc4ccccc4Cl)sc3nc2C1 | 117.05 | 109.63 | 121.48 | 96.7 | 104.5 | 109.85 | 108.8 | 116.26 | 116.03 | 126.77 | 105.6 | 104.6 | 128 | 103.08 | 111.24 | 71.33 |  |  |  | 
6 | Nc1c(C(=O)Nc2cccc(Cl)c2)sc2nc3c(cc12)C(=O)CCC3 | 57.11 | 75.34 | 49.7 | -20.21 | 54.42 | 11.61 | 58.16 | 51.4 | 43.9 | 52.39 | 23.87 | 57.06 | 66.38 |  | 69.74 | 49.32 | 33.11 | 39.11 | 58.33 | 60.44
7 | O=C(Nc1nc2ccc(Cl)cc2s1)c1ccc(Cl)cc1 | 97.6 | 98.61 | 110.45 | 87.02 | 122.51 | 114.57 | 94 | 109.14 | 98.56 | 119.2 | 107.3 | 95.76 | 106.78 |  | 111.04 | 94.69 | 100.76 | 94.31 | 115.32 | 100.6
8 | COc1ccc2[nH]c(C(=O)NCc3ccccc3)cc2c1 | 75.52 | 102.92 | 88.8 | 131.65 | 97.3 | 111.13 | 78.14 | 110.55 | 91.31 | 99.05 | 102.88 | 83.12 | 104.33 |  | 108.1 | 92.89 | 95.91 | 91.93 | 116.46 | 93.84
